Source: patent US20260258051A1, “Camptothecin Compound, Preparation Method Therefor and Use Thereof” (SICHUAN KELUN-BIOTECH BIOPHARMACEUTICAL CO., LTD., priority 2022, published 2026)
Like-named read-outs stand apart in the source and are kept apart here.

Assays:
HT29 cells = assay: Inhibitory effect on HT29 cell proliferation; type: cell-based; conditions: Homo sapiens, HT-29; HT29, 72 h incubation, Cell Counting-Lite 2.0
Procedure: (1) Cell plating: First, tumor cells HT29 were cultured with corresponding culture medium, the cells were digested with trypsin and centrifuged, then the cells were resuspended and counted, and the cells were adjusted to an appropriate concentration for plating.
(§1) Co-incubation of the compounds of the present invention and tumor cells: 90 μL of cell suspension was added to 96-well plates respectively. After cell adherence, 10 μL of bioactive molecules (compounds of the present invention) diluted with culture medium were added into the wells of the above plates, and incubated for 72 h.
(§2) In vitro cell viability detection: After the incubation, 50 μL of Cell Counting-Lite™ 2.0 reagent (Vazyme) was added to each well, shaken and mixed well in the dark, and reacted for 10 minutes before testing. Microplate reader (manufacturer: BMG, Model: PHERA Star-FS) was used for reading. The culture wells without cells were used as the background RLU, and the culture wells with cells but no compound were used as the cell control RLU. Cell inhibition rate=1−(sample RLU−background RLU)/(cell control RLU−background RLU)×100%. The half-inhibition concentration (IC50) of compound was calculated by fitting the curve according to the four-parameter model.

HCC1806 cells = assay: Inhibitory effect on HCC1806 cell proliferation; type: cell-based; conditions: Homo sapiens; HCC1806, 72 h incubation, Cell Counting-Lite 2.0
Procedure: (1) Cell plating: First, tumor cells HCC1806 were cultured with corresponding culture medium, the cells were digested with trypsin and centrifuged, then the cells were resuspended and counted, and the cells were adjusted to an appropriate concentration for plating.
as §1, §2

NCI-H358 cells = assay: Inhibitory effect on NCI-H358 cell proliferation; type: cell-based; conditions: Homo sapiens; NCI-H358, 72 h incubation, Cell Counting-Lite 2.0
Procedure: (1) Cell plating: First, tumor cells NCI-H358 were cultured with corresponding culture medium, the cells were digested with trypsin and centrifuged, then the cells were resuspended and counted, and the cells were adjusted to an appropriate concentration for plating.
as §1, §2

NCI-N87 cells = assay: Inhibitory effect on NCI-N87 cell proliferation; type: cell-based; conditions: Homo sapiens, NCI-N87, 72 h, read-out: IC50 (nM), inhibitory activity on NCI-N87 cell proliferation
Procedure: (1) Cell plating: First, tumor cells NCI-N87 were cultured with corresponding culture medium, the cells were digested with trypsin and centrifuged, then the cells were resuspended and counted, and the cells were adjusted to an appropriate concentration for plating.
as §1, §2

MDA-MB-231 cells = assay: Inhibitory effect on MDA-MB-231 cell proliferation; type: cell-based; conditions: Homo sapiens; MDA-MB-231, 72 h incubation, Cell Counting-Lite 2.0
Procedure: (1) Cell plating: First, tumor cells MDA-MB-231 were cultured with corresponding culture medium, the cells were digested with trypsin and centrifuged, then the cells were resuspended and counted, and the cells were adjusted to an appropriate concentration for plating.
as §1, §2

Jeko-1 cells = assay: Inhibitory effect on Jeko-1 cell proliferation; type: cell-based; conditions: Homo sapiens; Jeko-1, 72 h incubation, Cell Counting-Lite 2.0
Procedure: (1) Cell plating: First, tumor cells Jeko-1 were cultured with corresponding culture medium, the cells were resuspended and counted, and finally the cells were adjusted to an appropriate concentration for plating.
as §1, §2

MDA-MB-453 cells = assay: Inhibitory effect on MDA-MB-453 cell proliferation; type: cell-based; conditions: Homo sapiens; MDA-MB-453, 72 h incubation, Cell Counting-Lite 2.0
Procedure: (1) Cell plating: First, tumor cells MDA-MB-453 were cultured with corresponding culture medium, the cells were digested with trypsin and centrifuged, then the cells were resuspended and counted, and the cells were adjusted to an appropriate concentration for plating.
as §1, §2

[1] = Permeability test in MDCK cell model; type: in vitro ADME; conditions: dog
Procedure: (§3) The MDCK cell model was used to evaluate the permeability of the compounds, the LC-MS/MS method was used to determine the concentration of the substance to be tested, and the apparent permeability coefficient (Papp) and efflux ratio were calculated [Efflux ratio=Papp(B→A)/Papp(A→B)].
(§4) Complete culture medium: 10% fetal bovine serum and 1% penicillin/streptomycin were added to MEM culture medium.
(§5) Digestive solution: 0.05% trypsin-EDTA.
(§6) HBSS buffer: HBSS containing Ca^2+, Mg^2+.
(§7) Permeating solution: HBSS containing 10 mM Hepes, 4% BSA, pH 7.4.
(§8) Compound stock solution: a certain amount of the compound to be tested was weighed and formulated with DMSO to prepare a 10 mM stock solution.
(§9) MDCK cells (26th generation) in the logarithmic growth phase were digested and dispersed evenly with 0.05% trypsin-EDTA, and then inoculated into the Transwell chamber at 3*10^5 cells/cm^2, with 200 μL on the A side and 1000 μL on the B side. After inoculation, the medium was changed once every day and the culturing was carried out for 3 to 4 days.
(§10) The cell culture medium was discarded by pipetting, then washing was carried out three times with the permeating solution. 200 μL of permeating solution was added to A side and 1000 μL of permeating solution was added to B side. A voltage resistance meter was used to measure the cell transmembrane resistance (TEER). After the TEER value of the cells was measured, the permeating solution on both sides was discarded by pipetting, and the solution was added. After 120 minutes, 150 μL of samples were taken from A side and B side, respectively, and frozen at −80° C. before testing. Then, 10 μg/ml Fluorescent Yellow was added to A side. After incubation for 30 minutes, 100 μL of solution at B side was pipetted and added into a 96-well white plate. The fluorescence value was measured at the wavelengths of Ex=485 nm and Em=530 nm using a microplate reader, and the permeance was calculated (which was less than 1%).
(§11) 80 μL of the compound to be tested was taken, added to 320 μL of acetonitrile solution containing internal standard (30 ng/mL Tolbutamide), vortexed, and centrifuged for 10 min (4000 rpm, 4° C.), and the supernatant was taken for LC-MS/MS analysis.
(§12) Excel 2013 was used to calculate Papp values and Papp ratio of B side→A side to A side→B side, and the recovery rates of each Control Compound and the compound to be tested were calculated.
(§13) Apparent permeability coefficient (Papp) of compound was calculated according to the following formula:
(§14) C0 was the initial concentration (μM) of the drug to be tested at the donor, (dCr/dt)×Vr was the rate (μM/s) at which the drug to be tested appeared at the receiver, Vr was the solution volume (mL) at the receiver, and A was the surface area (cm^2) of polycarbonate membrane.
(§15) Evaluation criteria: Low permeability: Papp≤0.5 (×10^−6 cm/s) • Medium permeability: 0.5<Papp<2.5 (×10^−6 cm/s) • High permeability: Papp≥2.5 (×10^−6 cm/s)
(§16) Efflux ratio (ER) was calculated according to Papp:
(§17) [formula] • wherein, Papp(B→A) was the apparent permeability coefficient of the drug to be tested from the BL (baso-lateral) end to the AP (apical) end, and Papp (A→B) was the apparent permeability coefficient of the drug to be tested from the AP end to the BL end.
(§18) • Probably being an efflux transporter substrate (Probably): ERa≥2 and ERa/ERi>2 • Likely being an efflux transporter substrate (Likely): ERa≥2 • Unlikely or impossibly being an efflux transporter substrate (Poor or non): ERa<2 • wherein, ERi and ERa were the efflux ratios of the compound to be tested in the presence and absence of P-gp inhibitor, respectively.

MDCK cells = assay: Permeability test in MDCK cell model; type: in vitro ADME
Procedure: as §3, §4, §5, §6, §7, §8, §9, §10, §11, §12, §13, §14, §15, §16, §17, §18

HCC827 cells = assay: Inhibitory effect on HCC827 cell proliferation; type: cell-based; conditions: Homo sapiens; HCC827, 72 h incubation, Cell Counting-Lite 2.0
Procedure: (1) Cell plating: First, tumor cells HCC827 were cultured with corresponding culture medium, the cells were digested with trypsin and centrifuged, then the cells were resuspended and counted, and the cells were adjusted to an appropriate concentration for plating.
(§19) Co-incubation of the compounds of the present invention and tumor cells: After cell adherence, the culture medium in the cells was removed, and the diluted bioactive molecules (compounds of the present invention) were added into the wells of the above plates, and incubated for 72 h.
(§20) In vitro cell viability detection: After the incubation, 50 μL of Cell Counting-Lite™ 2.0 reagent (Vazyme) was added to each well, shaken and mixed well in the dark, and reacted for 10 minutes before testing. Microplate reader (manufacturer: BMG, Model: PHERA Star-FS) was used for reading. The Cell Counting-Lite™ without cells was used to obtain the background RLU, and the Cell Counting-Lite™ with cells was used obtain the solvent RLU. Cell inhibition rate=1−(sample RLU−background RLU)/(solvent RLU−background RLU)×100%. The half-inhibition concentration (IC50) of compound was calculated by fitting the curve according to the four-parameter model. RLU: relative light unit.

HCC1954 cells = assay: Inhibitory effect on HCC1954 cell proliferation; type: cell-based; conditions: Homo sapiens; HCC1954, 72 h incubation, Cell Counting-Lite 2.0
Procedure: (1) Cell plating: First, tumor cells HCC1954 were cultured with corresponding culture medium, the cells were digested with trypsin and centrifuged, then the cells were resuspended and counted, and the cells were adjusted to an appropriate concentration for plating.
as §19, §20

NCI-H1975 cells = assay: Inhibitory effect on NCI-H1975 cell proliferation; type: cell-based; conditions: Homo sapiens; NCI-H1975, 72 h incubation, Cell Counting-Lite 2.0
Procedure: (1) Cell plating: First, tumor cells NCI-H1975 were cultured with corresponding culture medium, the cells were digested with trypsin and centrifuged, then the cells were resuspended and counted, and the cells were adjusted to an appropriate concentration for plating.
as §19, §20

[2] = Liver microsome stability test (human); type: in vitro ADME; conditions: 1 μM
Procedure: (§21) Liver microsomes were used as an in vitro model to evaluate the metabolic stability of compounds in human and monkey liver microsomes.
Mixed human liver microsomes: Xenotech, USA
(§22) The positive compound testosterone or the tested substance (liver microsome solution, 50 μL) was mixed with PBS (25 μL). After pre-incubation (37° C.) for 5 min, NADPH (25 μL) was added to make the final concentration of the positive compound or the tested substance 1 μM, the final concentration of human liver microsomal protein was 0.5 mg/ml, the final concentration of monkey liver microsomal protein was 1 mg/ml, the tested substance group and the positive compound group were incubated for 0 min, 15 min. After being reacted for corresponding time, 300 μL of ice-cold acetonitrile containing internal standard was added to terminate the reaction, vortexed, and stored at −80° C. for later analysis. All incubated samples were double samples.
(§23) The tested compound was vortexed for 1 min, and centrifuged for 10 min (4° C., 4000 rpm), and 300 μL of the supernatant was taken for LC-MS/MS analysis.
(§24) Excel software was used to calculate the remaining rate (%) of the drug in primary form in the incubation system: […]

[3] = Liver microsome stability test (monkey); type: in vitro ADME, cynomolgus; conditions: 1 μM
Procedure: as §21
Mixed male cynomolgus liver microsomes: RILD, China
as §22, §23, §24

[4] = pH 7.4, 2.00 μM, Papp(B→A)/Papp(A→B), absence of P-gp inhibitor, read-out: Efflux ratio (ERa)

## CC[C@@]1(O)C(=O)OCc2c1cc1n(c2=O)Cc2c-1nc1cc(F)c(Cl)cc1c2CNC(=O)CO [Compound 2-1, (S)—N-((9-chloro-4-ethyl-8-fluoro-4-hydroxy-3,14-dioxy-3,4,12,14-tetrahydro-1H-pyrano[3′,4′:6,7]indolizino[1,2-b]quinolin-11-yl)methyl)-2-hydroxyacetamide]
HT29 cells
  IC50: 14.6 nM
HCC1806 cells
  IC50: 8.08 nM
NCI-H358 cells
  IC50: 121 nM
NCI-N87 cells
  IC50: 81.6 nM
MDA-MB-231 cells
  IC50: 38.5 nM
Jeko-1 cells
  IC50: 1.62 nM
MDA-MB-453 cells
  IC50: 156 nM
[1]; pH 7.4
  Papp A→B at 120 min, 2 μM: 0.52 ×10⁻⁶ cm/s
  Papp B→A at 120 min, 2 μM: 0.42 ×10⁻⁶ cm/s
[1]; [4]
  efflux ratio at 120 min, 2 μM: 0.81
MDCK cells
  Permeability class according to the Papp(A→B) results: medium-permeability
MDCK cells; 2.00 μM
  Efflux transporter substrate evaluation from efflux ratio: not efflux transporter substrates or were weak efflux transporter substrates

## CC[C@@]1(O)C(=O)OCc2c1cc1n(c2=O)Cc2c-1nc1cc(F)c(Cl)c3c1c2[C@@H](NC(=O)C[C@H](C)O)CC3 [Compound 2-25, (S)—N-((1S,9S)-4-chloro-9-ethyl-5-fluoro-9-hydroxy-10,13-dioxo-2,3,9,10,13,15-hexahydro-1H,12H-benzo[d]pyrano[3′,4′:6,7]indolizino[1,2-b]quinolin-1-yl)-3-hydroxybutyamide]
HCC827 cells
  IC50: 110 nM
HCC1954 cells
  IC50: 171 nM
NCI-H1975 cells
  IC50: 29.4 nM
[1]; pH 7.4
  Papp A→B at 120 min, 2 μM: 0.78 ×10⁻⁶ cm/s
  Papp B→A at 120 min, 2 μM: 3.56 ×10⁻⁶ cm/s
  efflux ratio at 120 min, 2 μM: 4.57
MDCK cells
  Permeability class according to the Papp(A→B) results: medium-permeability
[2]; human, microsomes, 0.25 h
  Remaining rate (%) Human: 80.0%
[3]; male, monkey, microsomes, 0.25 h
  Remaining rate (%) Monkey: 79.5%

## CC[C@@]1(O)C(=O)OCc2c1cc1n(c2=O)Cc2c-1nc1cc(F)c(C)c3c1c2[C@@H](NC(=O)C[C@H](C)O)CC3 [Control Compound 4, reference compound]
[1]; [4]
  efflux ratio at 120 min, 2 μM: 21.7
[1]; pH 7.4, concentration 2.00 μM, 120 minutes, A to B, read-out: Papp A to B
  Papp A→B at 120 min, 2 μM: 0.24 ×10⁻⁶ cm/s
[1]; pH 7.4, concentration 2.00 μM, 120 minutes, B to A, read-out: Papp B to A
  Papp B→A at 120 min, 2 μM: 5.25 ×10⁻⁶ cm/s
MDCK cells; 2.00 μM
  Efflux transporter substrate evaluation from efflux ratio: could be efflux transporter substrates
  Permeability class according to the Papp(A→B) results: low-permeability
[2]; human liver microsomes 0.5 mg/ml, 15 min, NADPH
  Remaining rate (%) Human: 64.6%
[3]; monkey liver microsomes 1 mg/ml, 15 min, NADPH
  Remaining rate (%) Monkey: 65.1%
